Like-named read-outs stand apart in the source and are kept apart here.
Assays:
PPARγ [1] = target: T1, PPARγ (Homo sapiens, UniProt P37231); test: Cotransfection (CTF) / response element assays, PPARγ in CV-1 cells; assay type: cell-based; design: Gla4 Eff; other: response element assay, GAL4 chimeric system; A PPARγ bacterial galactosidase (GAL4) chimeric system is also used; settings: response element assay, GAL4 chimeric system; for EC50: read-out: Gla4 EC50
T1 sequence (P37231 238-505 limits assumed): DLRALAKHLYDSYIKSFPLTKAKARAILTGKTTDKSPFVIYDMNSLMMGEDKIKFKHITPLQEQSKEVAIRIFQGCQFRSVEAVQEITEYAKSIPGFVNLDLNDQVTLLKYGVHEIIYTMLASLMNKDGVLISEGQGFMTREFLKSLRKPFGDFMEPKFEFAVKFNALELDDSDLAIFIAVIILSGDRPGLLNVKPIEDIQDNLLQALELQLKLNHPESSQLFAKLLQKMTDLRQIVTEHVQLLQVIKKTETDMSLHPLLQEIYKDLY
Source text: (§1) PPARγ or PPARα are constitutively expressed using plasmids containing the cytomegalovirus promoter. Reporter plasmids for the PPARγ CTF assays contain PPREs from the following genes: acyl coA oxidase (AOX); apolipoprotein A1 (ApoA1); lipoprotein lipase (LPL); or enoyl-CoA hydratase/3-hydroxyacyl-CoA dehydrogenase (HD) plus the thymidine kinase (TK) promoter upstream of the luciferase reporter cDNA. A PPARγ […] galactosidase (GAL4) chimeric system is also used. For PPARα, a GAL4 chimeric system is the standard CTF assay performed. All assays are done in CV-1 cells. Compounds are tested in full log dilution, from 0.1 nM to 10 μM in duplicate. Percent efficacies are determined relative to reference molecules with the efficacy value reflecting the greatest amount of agonist activity achieved in the CTF assay for each compound. Median effective concentration (EC50) values are determined by computer fit to a concentration-response curve. An EC50 value is not calculated if the efficacy for the compound is <20%. Reported values represent means from two to nine separate experiments.

diabetic (db/db) mice = test: Glucose, triglyceride, hematocrit levels and body weight gain in diabetic mice; settings: for plasma glucose normalization / plasma triglycerides normalization: db/db mice
Description: Five-week-old male diabetic (db/db) mice (Harlan Laboratories, Indianapolis, Ind.) are housed in plastic cages (n=6/cage; cage size is approximately 10×20×8″ with aspen chip bedding) with free access to water (sipper system—city tap water) and food (Purina 5008). After two weeks of acclimation, animals (7 weeks of age) are bled on day 0 at 1000-1200 h (lights on 0600 h) and assigned to treatment groups (n=5 or 6) based on starting glucose values. Compound or vehicle only treatments are administered daily by oral gavage at approximately 0730 h. Body weights are measured at the beginning (day 0) and end (day 7 or day 14) of the studies. Blood is collected in heparinized tubes from the tail of nonfasted animals two to three hours after the last dose. Hematocrit, glucose and triglycerides levels are then determined. The reported values for glucose and triglyceride levels represent the % of normalization compared to the lean littermate values set at 100% or glucose normalization calculated based on a normal glucose level of 250 mg/dl. Statistical significance between experimental groups is assessed using a two-sided student's t-test.
Plasma glucose and hematocrit levels along with body weight are measured before the study began (day 0) and at the end of the study (day 14).
Plasma glucose, triglyceride, and hematocrit levels along with body weight are measured before the study began (day 0) and at the end of the study (day 7).

PPARα [2] = target: T2, PPARα (Homo sapiens, UniProt Q07869); test: Cotransfection (CTF) assay, PPARα GAL4 chimeric system in CV-1 cells; assay type: cell-based; settings: for Eff (α): relative to reference molecule
T2 construct: For PPARα, a GAL4 chimeric system is the standard CTF assay performed
T2 sequence (Q07869 200-468 limits assumed): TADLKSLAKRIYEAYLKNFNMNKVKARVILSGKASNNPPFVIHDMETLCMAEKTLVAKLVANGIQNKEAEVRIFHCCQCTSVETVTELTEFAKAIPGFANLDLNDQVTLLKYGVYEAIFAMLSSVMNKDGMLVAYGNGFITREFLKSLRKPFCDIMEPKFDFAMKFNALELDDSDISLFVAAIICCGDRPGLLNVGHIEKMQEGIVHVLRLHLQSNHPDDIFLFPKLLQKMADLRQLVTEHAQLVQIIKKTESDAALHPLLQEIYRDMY
Source text: as §1

[3] = target: T3, PPARγ ligand binding domain / ASC-2 (Homo sapiens, UniProt P37231); test: Co-factor recruitment assay (mammalian-2-hybrid, CV-1 cells), ASC-2; assay type: cell-based; settings: for EC50: read-out: ASC2 EC50; for ASC2 Eff: relative to a PPARγ full agonist
T3 construct: expressed in transfected cells; host or cells: CV-1 cells
T3 sequence (Q14686 whole entry partner, species assumed, one chain of several, the tested form may be a part): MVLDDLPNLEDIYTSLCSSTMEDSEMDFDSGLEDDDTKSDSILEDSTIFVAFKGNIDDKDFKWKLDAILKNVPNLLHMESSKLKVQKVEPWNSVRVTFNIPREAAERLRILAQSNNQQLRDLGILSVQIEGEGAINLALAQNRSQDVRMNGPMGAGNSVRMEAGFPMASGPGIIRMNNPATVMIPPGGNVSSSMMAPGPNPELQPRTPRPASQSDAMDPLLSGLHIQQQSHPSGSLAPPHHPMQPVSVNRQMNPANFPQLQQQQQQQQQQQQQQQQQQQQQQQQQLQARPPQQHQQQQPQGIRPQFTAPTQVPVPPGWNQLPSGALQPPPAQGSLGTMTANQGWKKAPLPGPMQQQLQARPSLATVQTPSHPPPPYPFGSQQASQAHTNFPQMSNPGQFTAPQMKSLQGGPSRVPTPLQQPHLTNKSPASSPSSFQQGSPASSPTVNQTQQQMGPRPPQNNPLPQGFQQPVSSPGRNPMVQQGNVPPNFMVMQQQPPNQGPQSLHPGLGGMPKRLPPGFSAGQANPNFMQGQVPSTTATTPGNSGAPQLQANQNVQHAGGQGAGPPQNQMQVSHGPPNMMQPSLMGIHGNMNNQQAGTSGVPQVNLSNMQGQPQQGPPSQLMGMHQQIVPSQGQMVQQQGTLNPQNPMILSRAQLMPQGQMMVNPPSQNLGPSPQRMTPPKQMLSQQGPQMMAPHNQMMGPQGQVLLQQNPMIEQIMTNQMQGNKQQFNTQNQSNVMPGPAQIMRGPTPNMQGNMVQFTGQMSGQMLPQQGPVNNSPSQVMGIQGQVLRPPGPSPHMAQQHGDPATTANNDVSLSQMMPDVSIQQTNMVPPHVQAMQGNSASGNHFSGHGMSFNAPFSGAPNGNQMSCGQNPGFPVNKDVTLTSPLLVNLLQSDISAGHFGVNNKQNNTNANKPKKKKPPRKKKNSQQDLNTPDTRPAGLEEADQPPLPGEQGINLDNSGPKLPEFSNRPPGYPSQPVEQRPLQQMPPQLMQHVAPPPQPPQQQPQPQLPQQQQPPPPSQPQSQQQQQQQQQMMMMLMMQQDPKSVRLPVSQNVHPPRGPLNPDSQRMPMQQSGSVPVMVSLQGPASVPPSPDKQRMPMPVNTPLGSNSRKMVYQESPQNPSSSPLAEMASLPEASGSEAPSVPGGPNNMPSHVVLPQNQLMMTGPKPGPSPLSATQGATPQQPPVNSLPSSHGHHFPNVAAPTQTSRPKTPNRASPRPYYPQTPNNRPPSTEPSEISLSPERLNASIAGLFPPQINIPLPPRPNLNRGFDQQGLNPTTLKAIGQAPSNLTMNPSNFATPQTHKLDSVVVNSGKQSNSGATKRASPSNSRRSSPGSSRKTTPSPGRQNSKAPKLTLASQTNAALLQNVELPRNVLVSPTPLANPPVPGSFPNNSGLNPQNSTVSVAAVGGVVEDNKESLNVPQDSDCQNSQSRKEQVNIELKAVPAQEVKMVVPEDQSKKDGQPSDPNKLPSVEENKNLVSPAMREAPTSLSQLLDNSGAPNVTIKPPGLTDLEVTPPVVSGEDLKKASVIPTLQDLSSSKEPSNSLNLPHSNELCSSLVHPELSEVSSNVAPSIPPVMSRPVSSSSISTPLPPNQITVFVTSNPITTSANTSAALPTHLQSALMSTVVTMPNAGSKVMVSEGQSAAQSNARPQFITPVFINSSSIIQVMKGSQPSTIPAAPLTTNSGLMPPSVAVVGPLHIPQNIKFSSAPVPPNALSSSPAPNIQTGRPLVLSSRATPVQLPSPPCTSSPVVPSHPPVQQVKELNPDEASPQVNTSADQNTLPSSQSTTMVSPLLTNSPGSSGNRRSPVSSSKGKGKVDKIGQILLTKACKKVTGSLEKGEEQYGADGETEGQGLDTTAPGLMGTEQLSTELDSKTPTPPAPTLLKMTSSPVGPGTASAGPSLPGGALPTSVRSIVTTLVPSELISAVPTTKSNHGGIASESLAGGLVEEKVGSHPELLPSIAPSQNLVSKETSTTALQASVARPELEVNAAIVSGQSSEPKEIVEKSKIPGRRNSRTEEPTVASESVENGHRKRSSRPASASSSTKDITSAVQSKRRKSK
Source text: (§2) A mammalian-2-hybrid assay system in CTF format is done in CV-1 cells. The following plasmids are used: a mammalian expression vector encoding a fusion of the GAL4 DNA binding domain with the PPARγ ligand binding domain; a mammalian expression vector encoding a fusion of the VP16 transactivation domain with the nuclear receptor interaction domain of the respective co-activators: CREB-binding protein (CBP), peroxisome proliferator-activated receptor gamma coactivator-1 (PGC-1), activating signal cointegrator-2 (ASC-2), thyroid hormone receptor-activated protein complex (TRAP220), and the peptide C33; and a reporter plasmid (multimerized GAL4 binding sites/minimal TK promoter driving a luciferase cDNA). Cells are transfected in batch format and treated with compound (full log dilution from 0.1 nM to 10 μM) or vehicle for 24 hours. Subsequently, the cells are lysed and luciferase activity is measured. Luciferase activity serves as the endpoint for interaction between co-activator and receptor. The data are presented as % efficacy relative to a PPARγ full agonist and represent means from four to six separate experiments.

PPARγ [4] = target: T4, PPARγ (Homo sapiens, UniProt P37231); test: Competitive displacement binding assay (SPA), PPARγ; settings: PPARγ/RXRα
T4 construct: made in house; host or cells: baculovirus expression system
Description: (§3) Binding assays are performed using scintillation proximity assay (SPA) technology, PPAR receptors, and corresponding radiolabeled ligands. PPARα and PPARγ along with their heterodimeric partner, retinoid X receptor α, are each produced using a baculovirus expression system. Biotinylated oligonucleotides containing PPAR response elements (PPREs) are used to couple the corresponding receptor dimers to yttrium silicate streptavidin-coated SPA beads. PPARγ- and PPARα-specific ligands are labeled with tritium and used in the appropriate corresponding assays. The IC50 values (compound concentration which causes 50% inhibition) for each competing compound are calculated after deduction of non-specific binding (measured in the presence of 10 μM unlabeled ligand). Compounds are evaluated using an 11-point dose response curve with concentrations ranging from 0.169 nM to 10 μM. Reported values represent means from one to seven separate experiments.
T4 sequence (P37231 whole entry, the tested form may be a part): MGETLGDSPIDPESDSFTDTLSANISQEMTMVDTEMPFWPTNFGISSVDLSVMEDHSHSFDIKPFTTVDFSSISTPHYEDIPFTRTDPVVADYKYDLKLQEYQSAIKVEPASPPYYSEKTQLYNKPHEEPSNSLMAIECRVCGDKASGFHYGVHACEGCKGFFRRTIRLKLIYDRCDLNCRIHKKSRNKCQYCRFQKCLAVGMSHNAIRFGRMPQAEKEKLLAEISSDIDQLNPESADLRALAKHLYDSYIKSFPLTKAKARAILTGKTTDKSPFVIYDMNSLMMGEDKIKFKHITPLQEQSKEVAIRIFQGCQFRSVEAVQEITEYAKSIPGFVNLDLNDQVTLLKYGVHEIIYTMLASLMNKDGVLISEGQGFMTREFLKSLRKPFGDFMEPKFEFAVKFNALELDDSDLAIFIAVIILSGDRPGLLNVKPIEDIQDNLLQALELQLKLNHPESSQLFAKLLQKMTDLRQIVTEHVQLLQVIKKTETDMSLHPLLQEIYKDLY
T4 sequence (P19793 whole entry, further chain, the tested form may be a part): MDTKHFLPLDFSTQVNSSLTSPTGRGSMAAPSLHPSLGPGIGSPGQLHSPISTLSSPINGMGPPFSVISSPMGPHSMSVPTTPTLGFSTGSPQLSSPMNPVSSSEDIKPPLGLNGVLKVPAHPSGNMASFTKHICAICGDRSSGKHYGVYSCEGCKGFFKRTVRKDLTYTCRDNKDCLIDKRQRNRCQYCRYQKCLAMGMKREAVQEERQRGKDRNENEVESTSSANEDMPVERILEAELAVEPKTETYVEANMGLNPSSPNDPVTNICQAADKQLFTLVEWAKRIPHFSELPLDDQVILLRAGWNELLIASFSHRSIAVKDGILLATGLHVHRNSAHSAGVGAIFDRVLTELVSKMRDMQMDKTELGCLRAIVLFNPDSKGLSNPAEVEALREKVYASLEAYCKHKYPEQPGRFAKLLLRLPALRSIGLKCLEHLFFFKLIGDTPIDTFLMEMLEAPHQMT

[5] = target: T5, PPARγ ligand binding domain / CREB-binding protein (CBP) (Homo sapiens, UniProt P37231); test: Co-factor recruitment assay (mammalian-2-hybrid, CV-1 cells), CBP; assay type: cell-based; settings: for CBP Eff: relative to a PPARγ full agonist
T5 construct: expressed in transfected cells; host or cells: CV-1 cells
Source text: as §2

PPARγ [6] = target: T1, PPARγ; test: Cotransfection (CTF) / response element assays, PPARγ in CV-1 cells; assay type: cell-based; design: rows headed: PPARγ efficacy (% efficacy compared to a PPARγ full agonist set at 100%); PPARγ or PPARα are constitutively expressed using plasmids containing the cytomegalovirus promoter; settings: CV-1; range over CTF assays of Tables 1 and 3; read-out: PPARγ efficacy (% efficacy compared to a PPARγ full agonist set at 100%)
Source text: as §1

[7] = target: T6, PPARγ ligand binding domain / TRAP220 (Homo sapiens, UniProt P37231); test: Co-factor recruitment assay (mammalian-2-hybrid, CV-1 cells), TRAP220; assay type: cell-based; settings: for TRAP220 Eff: relative to a PPARγ full agonist
T6 construct: expressed in transfected cells; host or cells: CV-1 cells
T6 sequence (Q15648 whole entry partner, species assumed, one chain of several, the tested form may be a part): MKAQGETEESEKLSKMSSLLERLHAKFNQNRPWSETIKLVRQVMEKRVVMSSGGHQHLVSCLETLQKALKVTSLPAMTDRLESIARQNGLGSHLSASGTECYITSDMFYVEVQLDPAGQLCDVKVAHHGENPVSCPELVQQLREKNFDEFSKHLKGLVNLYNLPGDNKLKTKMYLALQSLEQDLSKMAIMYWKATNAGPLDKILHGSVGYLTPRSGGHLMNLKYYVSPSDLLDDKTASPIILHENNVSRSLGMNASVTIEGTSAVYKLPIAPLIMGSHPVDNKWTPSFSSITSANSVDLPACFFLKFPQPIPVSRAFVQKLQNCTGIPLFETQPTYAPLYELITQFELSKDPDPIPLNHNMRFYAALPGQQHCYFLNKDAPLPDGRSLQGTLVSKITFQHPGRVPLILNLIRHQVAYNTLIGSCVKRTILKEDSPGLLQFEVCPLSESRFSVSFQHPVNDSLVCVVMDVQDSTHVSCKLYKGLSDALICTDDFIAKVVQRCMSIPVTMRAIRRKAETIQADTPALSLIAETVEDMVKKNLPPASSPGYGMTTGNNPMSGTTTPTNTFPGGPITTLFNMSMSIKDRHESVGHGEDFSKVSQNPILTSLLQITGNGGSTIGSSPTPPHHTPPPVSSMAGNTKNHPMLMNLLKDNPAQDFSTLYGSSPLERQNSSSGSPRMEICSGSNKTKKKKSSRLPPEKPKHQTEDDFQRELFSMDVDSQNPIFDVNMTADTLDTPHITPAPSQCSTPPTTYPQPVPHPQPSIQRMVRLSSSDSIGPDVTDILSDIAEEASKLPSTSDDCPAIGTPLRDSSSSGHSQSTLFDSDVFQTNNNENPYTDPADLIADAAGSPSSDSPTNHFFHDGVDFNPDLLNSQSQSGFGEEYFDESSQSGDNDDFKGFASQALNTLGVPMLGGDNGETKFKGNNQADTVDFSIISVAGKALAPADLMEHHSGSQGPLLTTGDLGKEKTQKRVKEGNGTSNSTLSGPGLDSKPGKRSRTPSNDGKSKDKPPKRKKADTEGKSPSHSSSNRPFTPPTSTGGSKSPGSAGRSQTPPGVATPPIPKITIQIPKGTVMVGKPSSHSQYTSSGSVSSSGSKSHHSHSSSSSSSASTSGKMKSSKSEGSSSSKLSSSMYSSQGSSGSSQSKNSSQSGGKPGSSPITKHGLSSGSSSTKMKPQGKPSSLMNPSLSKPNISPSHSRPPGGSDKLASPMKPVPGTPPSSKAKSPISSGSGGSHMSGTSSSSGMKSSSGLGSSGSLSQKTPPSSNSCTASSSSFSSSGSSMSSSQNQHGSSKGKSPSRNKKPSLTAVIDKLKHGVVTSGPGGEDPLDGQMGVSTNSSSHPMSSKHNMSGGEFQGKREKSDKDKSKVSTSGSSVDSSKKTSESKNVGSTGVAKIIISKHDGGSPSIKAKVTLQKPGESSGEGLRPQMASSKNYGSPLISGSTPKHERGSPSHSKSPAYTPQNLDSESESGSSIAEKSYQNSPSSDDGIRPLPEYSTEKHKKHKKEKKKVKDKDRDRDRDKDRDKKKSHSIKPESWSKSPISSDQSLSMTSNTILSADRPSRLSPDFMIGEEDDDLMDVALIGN
Source text: as §2

[8] = target: T7, PPARγ ligand binding domain / peptide C33 (Homo sapiens, UniProt P37231); test: Co-factor recruitment assay (mammalian-2-hybrid, CV-1 cells), peptide C33; assay type: cell-based; settings: for C33 Eff: relative to a PPARγ full agonist
T7 construct: expressed in transfected cells; host or cells: CV-1 cells
T7 sequence (P37231 238-503 limits assumed): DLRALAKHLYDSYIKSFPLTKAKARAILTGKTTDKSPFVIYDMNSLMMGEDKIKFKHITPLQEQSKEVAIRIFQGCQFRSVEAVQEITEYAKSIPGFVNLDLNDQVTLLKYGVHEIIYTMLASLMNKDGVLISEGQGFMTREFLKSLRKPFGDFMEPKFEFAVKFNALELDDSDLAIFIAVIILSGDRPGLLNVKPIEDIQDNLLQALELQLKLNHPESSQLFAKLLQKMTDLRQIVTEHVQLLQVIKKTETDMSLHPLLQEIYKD
Source text: as §2

[9] = target: T8, PPARγ ligand binding domain / PGC-1 (Homo sapiens, UniProt P37231); test: Co-factor recruitment assay (mammalian-2-hybrid, CV-1 cells), PGC-1; assay type: cell-based; settings: for EC50: read-out: PGC1 EC50; for PGC1 Eff: relative to a PPARγ full agonist
T8 construct: expressed in transfected cells; host or cells: CV-1 cells
T8 sequence (P37231 238-503 limits assumed): T7 sequence (P37231 238-503 limits assumed)
T8 sequence (Q9UBK2 1-798 partner): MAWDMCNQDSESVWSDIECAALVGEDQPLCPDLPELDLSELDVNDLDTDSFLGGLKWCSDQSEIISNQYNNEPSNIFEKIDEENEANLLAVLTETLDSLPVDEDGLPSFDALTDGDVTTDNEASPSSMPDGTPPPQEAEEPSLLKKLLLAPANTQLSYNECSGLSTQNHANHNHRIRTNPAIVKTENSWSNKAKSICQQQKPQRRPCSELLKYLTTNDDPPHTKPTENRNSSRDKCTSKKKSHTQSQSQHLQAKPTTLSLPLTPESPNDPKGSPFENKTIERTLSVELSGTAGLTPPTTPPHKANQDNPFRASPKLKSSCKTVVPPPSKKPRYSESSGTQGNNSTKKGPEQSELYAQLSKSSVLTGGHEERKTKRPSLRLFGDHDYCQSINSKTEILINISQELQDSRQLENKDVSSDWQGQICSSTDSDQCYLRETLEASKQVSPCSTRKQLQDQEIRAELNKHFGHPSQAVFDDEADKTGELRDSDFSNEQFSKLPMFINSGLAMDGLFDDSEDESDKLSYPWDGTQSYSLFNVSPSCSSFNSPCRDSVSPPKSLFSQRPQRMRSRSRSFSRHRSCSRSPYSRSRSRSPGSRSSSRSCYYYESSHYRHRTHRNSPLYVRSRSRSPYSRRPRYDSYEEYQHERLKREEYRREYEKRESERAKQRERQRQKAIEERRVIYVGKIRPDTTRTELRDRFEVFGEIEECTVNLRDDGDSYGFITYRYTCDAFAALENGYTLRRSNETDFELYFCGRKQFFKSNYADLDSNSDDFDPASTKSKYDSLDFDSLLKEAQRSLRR
Source text: as §2

PPARγ [10] = target: T1, PPARγ; test: Cotransfection (CTF) / response element assays, PPARγ in CV-1 cells; assay type: cell-based; design: Eff (γ); HD Eff; other: response element assay, HD PPRE reporter; LPL Eff; other: response element assay, LPL PPRE reporter; ApoA1 Eff; other: response element assay, ApoA1; PPARγ or PPARα are constitutively expressed using plasmids containing the cytomegalovirus promoter; settings: for Eff (γ): Table 1, relative to PPARγ full agonist set at 100%
Source text: as §1

PPARα [11] = target: T9, PPARα (Homo sapiens, UniProt Q07869); test: Competitive displacement binding assay (SPA), PPARα; settings: PPARα/RXRα
T9 construct: made in house; host or cells: baculovirus expression system
Description: as §3
T9 sequence (Q07869 whole entry, the tested form may be a part): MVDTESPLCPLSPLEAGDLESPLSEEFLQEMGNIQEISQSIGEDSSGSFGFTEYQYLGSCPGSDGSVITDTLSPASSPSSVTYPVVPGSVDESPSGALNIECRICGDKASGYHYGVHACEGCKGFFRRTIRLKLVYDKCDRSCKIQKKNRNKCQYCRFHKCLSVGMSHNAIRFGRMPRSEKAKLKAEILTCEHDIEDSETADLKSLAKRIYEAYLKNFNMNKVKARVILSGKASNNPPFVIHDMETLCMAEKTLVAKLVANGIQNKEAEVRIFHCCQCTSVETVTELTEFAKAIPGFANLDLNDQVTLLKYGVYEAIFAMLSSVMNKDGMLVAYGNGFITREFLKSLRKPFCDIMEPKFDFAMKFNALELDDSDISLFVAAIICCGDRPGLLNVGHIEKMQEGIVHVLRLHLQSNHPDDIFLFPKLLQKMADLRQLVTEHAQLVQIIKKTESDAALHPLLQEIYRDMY
T9 sequence (P19793 whole entry, further chain, the tested form may be a part): as the sequence (P19793 whole entry, further chain, the tested form may be a part) above

[12] = CTF, Table 1, read-out: EC50 (γ)
[13] = response element assay, HD PPRE reporter
[14] = response element assay, HD PPRE reporter, read-out: HD EC50
[15] = response element assay, LPL PPRE reporter
[16] = response element assay, LPL PPRE reporter, read-out: LPL EC50
[17] = 3 mg/kg/day oral gavage, 7 days
[18] = 10 mg/kg/day oral gavage, 7 days
[19] = 30 mg/kg/day oral gavage, 7 days
[20] = 100 mg/kg/day oral gavage, 7 days

SMILES | Gla4 Eff (PPARγ [1]) [% efficacy] | EC50 (PPARγ [1]) [µM] | EC50 (PPARα [2]) [µM] | Eff (α) (PPARα [2]) [% efficacy] | EC50 [3] [µM] | ASC2 Eff [3] [% efficacy] | IC50 (PPARγ [4]) [µM] | EC50 [5] [µM] | CBP Eff [5] [% efficacy] | Emax (PPARγ [6]) [%] | TRAP220 Eff [7] [% efficacy] | EC50 [8] [µM] | C33 Eff [8] [% efficacy] | EC50 [9] [µM] | PGC1 Eff [9] [% efficacy] | Eff (γ) (PPARγ [10]; CTF) [% efficacy] | EC50 (PPARγ [10]; [12]) [µM] | HD Eff (PPARγ [10]; [13]) [% efficacy] | EC50 (PPARγ [10]; [14]) [µM] | LPL Eff (PPARγ [10]; [15]) [% efficacy] | further results
COc1ccc(CCNC(=O)COc2ccc(C[C@H](OC)C(=O)O)cc2)cc1 [formula III, (2S)-3-(4-{[2-(4-methoxy-phenyl)-ethylcarbamoyl]-methoxy}-phenyl)-2-methoxy-propionic acid] | 30 | 1.98 | 1.3 | 43 | 1.38 | 15 | 0.052 | 1.92 | 15 | 30 to 86 | 7 | 3.01 | 13 | 2.07 | 24 | 60 | 1.89 | 54 | 1.14 | 86 | plasma glucose normalization (diabetic (db/db) mice; 1 mg/kg/day oral gavage, 14 days): 42.7 % normalization; plasma glucose normalization (diabetic (db/db) mice; 3 mg/kg/day oral gavage, 14 days): 68.3 % normalization; plasma glucose normalization (diabetic (db/db) mice; 10 mg/kg/day oral gavage, 14 days): 96.1 % normalization; plasma glucose normalization (diabetic (db/db) mice; 30 mg/kg/day oral gavage, 14 days): 109.3 % normalization; dose-dependent reduction in hematocrit levels, indicative of plasma volume expansion (diabetic (db/db) mice; db/db mice, 1, 3, 10, 30 mg/kg/day oral gavage, 14 days): not seen; TRAP220 efficacy [7]: Eff < 20; melting point: 97 to 98 °C; EC50 (PPARγ [10]; [16]): 1.42 µM; IC50 (PPARα [11]): 0.113 µM
CCOc1ccc(CCNC(=O)COc2ccc(C[C@H](OC)C(=O)O)cc2)cc1 [formula V, (S)-3-(4-{[2-(4-ethoxy-phenyl)-ethylcarbamoyl]-methoxy}-phenyl)-2-methoxy-propionic acid] | 39 | 1.91 | 1.81 | 39 | 2.87 | 33 | 0.03 | 2.64 | 18 | 39 to 80 | 16 | 2.89 | 43 | 2.6 | 24 | 60 | 1.01 | 58 | 1.04 | 80 | plasma glucose normalization (diabetic (db/db) mice; [17]): 61.2 % normalization; plasma triglycerides normalization (diabetic (db/db) mice; [17]): 108.1 % normalization; plasma glucose normalization (diabetic (db/db) mice; [18]): 87.5 % normalization; plasma triglycerides normalization (diabetic (db/db) mice; [18]): 108.1 % normalization; plasma glucose normalization (diabetic (db/db) mice; [19]): 105.6 % normalization; plasma triglycerides normalization (diabetic (db/db) mice; [19]): 121.1 % normalization; plasma glucose normalization (diabetic (db/db) mice; [20]): 110.3 % normalization; plasma triglycerides normalization (diabetic (db/db) mice; [20]): 130.6 % normalization; EC50 [7]: 3.06 µM; ApoA1 Eff (PPARγ [10]; response element assay, ApoA1 PPRE reporter): 39 % efficacy; EC50 (PPARγ [10]; response element assay, ApoA1 PPRE reporter, read-out: ApoA1 EC50): 0.335 µM; EC50 (PPARγ [10]; [16]): 0.466 µM; IC50 (PPARα [11]): 0.36 µM
